Reference: patent US9212182B2, “Bicyclic sulfonamide compounds as sodium channel inhibitors” (AMGEN INC., priority 2013, dated 2015)
pIC50: −log10 of the molar value.

Biological target: Nav 1.7 (Homo sapiens (Human), UniProt Q15858)
Assay: in-vitro Nav 1.7 PX (IC50)
Type: cell-based
Conditions: not given

Sequence of Nav 1.7 (Q15858 whole entry): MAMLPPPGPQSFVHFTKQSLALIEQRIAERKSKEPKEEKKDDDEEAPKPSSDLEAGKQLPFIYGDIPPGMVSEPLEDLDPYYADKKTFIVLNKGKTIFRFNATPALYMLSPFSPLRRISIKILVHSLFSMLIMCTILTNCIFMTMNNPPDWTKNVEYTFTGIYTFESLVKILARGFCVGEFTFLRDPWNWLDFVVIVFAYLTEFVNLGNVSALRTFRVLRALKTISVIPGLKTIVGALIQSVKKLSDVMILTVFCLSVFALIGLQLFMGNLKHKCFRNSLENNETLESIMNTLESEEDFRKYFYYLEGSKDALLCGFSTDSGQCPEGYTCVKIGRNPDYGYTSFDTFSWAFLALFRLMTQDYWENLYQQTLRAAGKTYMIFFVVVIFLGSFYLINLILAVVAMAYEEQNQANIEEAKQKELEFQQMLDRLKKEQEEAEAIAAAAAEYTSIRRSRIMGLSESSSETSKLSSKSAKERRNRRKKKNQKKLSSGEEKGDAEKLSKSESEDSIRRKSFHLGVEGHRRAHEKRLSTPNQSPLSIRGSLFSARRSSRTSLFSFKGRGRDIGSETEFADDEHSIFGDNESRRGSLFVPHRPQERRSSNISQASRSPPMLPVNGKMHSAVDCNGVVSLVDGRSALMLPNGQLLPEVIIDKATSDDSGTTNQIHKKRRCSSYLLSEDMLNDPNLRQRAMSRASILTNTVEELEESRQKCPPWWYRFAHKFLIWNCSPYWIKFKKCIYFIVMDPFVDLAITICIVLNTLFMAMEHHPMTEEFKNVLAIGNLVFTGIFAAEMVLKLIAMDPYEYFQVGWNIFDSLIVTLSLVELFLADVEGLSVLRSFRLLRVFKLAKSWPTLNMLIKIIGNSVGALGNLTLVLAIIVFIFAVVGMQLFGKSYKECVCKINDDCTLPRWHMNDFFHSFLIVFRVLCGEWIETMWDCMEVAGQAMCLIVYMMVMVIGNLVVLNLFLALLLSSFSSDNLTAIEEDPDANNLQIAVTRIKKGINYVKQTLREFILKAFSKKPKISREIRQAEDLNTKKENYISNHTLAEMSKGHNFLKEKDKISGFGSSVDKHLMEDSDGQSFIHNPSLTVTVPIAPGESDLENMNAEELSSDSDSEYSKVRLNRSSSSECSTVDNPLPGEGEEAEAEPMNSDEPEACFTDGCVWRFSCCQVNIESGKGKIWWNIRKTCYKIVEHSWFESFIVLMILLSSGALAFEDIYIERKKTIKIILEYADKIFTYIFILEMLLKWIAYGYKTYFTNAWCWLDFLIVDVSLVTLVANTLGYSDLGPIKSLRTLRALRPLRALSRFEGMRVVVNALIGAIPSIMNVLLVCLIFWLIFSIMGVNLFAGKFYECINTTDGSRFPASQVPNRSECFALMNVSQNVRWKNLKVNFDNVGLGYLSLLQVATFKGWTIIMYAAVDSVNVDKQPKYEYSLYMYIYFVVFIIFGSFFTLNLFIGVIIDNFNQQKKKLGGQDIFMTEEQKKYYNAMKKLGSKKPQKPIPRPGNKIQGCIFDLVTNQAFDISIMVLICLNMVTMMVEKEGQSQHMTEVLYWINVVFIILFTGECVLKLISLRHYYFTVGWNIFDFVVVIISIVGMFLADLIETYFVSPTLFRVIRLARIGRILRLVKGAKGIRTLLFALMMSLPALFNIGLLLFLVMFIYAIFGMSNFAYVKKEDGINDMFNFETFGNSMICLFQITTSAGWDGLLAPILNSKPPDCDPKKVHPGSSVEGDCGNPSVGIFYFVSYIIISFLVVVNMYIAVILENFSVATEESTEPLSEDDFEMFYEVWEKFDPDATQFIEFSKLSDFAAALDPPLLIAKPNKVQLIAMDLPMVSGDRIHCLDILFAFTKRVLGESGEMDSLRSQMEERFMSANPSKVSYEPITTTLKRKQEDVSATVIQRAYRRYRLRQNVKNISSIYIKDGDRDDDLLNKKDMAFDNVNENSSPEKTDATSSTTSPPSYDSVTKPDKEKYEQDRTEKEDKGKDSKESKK

Q: How did the pIC50 turn out when `COc1cc(-c2cccc(F)c2)c(C)cc1-n1c(=O)cc(C)c2cc(S(=O)(=O)Nc3ccon3)ccc21` (atropisomer, axis not shown; (P)) [Example 568, (P)-1-(3′-fluoro-5-methoxy-2-methyl-4-biphenylyl)-N-3-isoxazolyl-4-methyl-2-oxo-1,2-dihydro-6-quinolinesulfonamide] was run?
A: 7.04

Q: `COc1cc(C#CC2CCCC2)ccc1-n1c(=O)ccc2cc(S(=O)(=O)Nc3cccnn3)ccc21` (atropisomer, axis not shown; (P)) [Example 1239, (P)-1-(4-(cyclopentylethynyl)-2-methoxyphenyl)-2-oxo-N-3-pyridazinyl-1,2-dihydro-6-quinolinesulfonamide] was tested. Which pIC50 did it give?
A: 6.95

Q: `COc1nc(O[C@H]2C[C@H]3CC[C@@H]2C3)c(Cl)cc1-n1c(=O)ccc2cc(S(=O)(=O)Nc3ccon3)ccc21` [Example 1223, 1-(6-((1R,2S,4S)-bicyclo[2.2.1]hept-2-yloxy)-5-chloro-2-methoxy-3-pyridinyl)-N-3-isoxazolyl-2-oxo-1,2-dihydro-6-quinolinesulfonamide] was tested. Which pIC50 did it give?
A: 6.38

Q: With `COc1cc(-c2cccc(OC(F)F)c2)c(F)cc1-n1c(=O)cnc2cc(S(=O)(=O)Nc3ccon3)ccc21` [Example 1193, 1-(3′-(difluoromethoxy)-2-fluoro-5-methoxy-4-biphenylyl)-N-3-isoxazolyl-2-oxo-1,2-dihydro-6-quinoxalinesulfonamide] as the compound, how does the pIC50 read?
A: 7.03

Q: `COc1cc(-c2cc(F)cc(Cl)c2)ccc1-n1c(=O)ccc2cc(S(=O)(=O)Nc3ccon3)ccc21` (atropisomer, axis not shown; (M)) [Example 429, (M)-1-(3′-chloro-5′-fluoro-3-methoxy-4-biphenylyl)-N-3-isoxazolyl-2-oxo-1,2-dihydro-6-quinolinesulfonamide] was tested. Which pIC50 did it give?
A: 5.80

Q: How did the pIC50 turn out when `COc1nc(OCc2ccc(F)c(F)c2F)c(Cl)cc1-n1c(=O)ccc2cc(S(=O)(=O)Nc3ccon3)ccc21` [Example 1216, 1-(5-chloro-2-methxy-6-((2,3,4-trifluorobenzyl)oxy)-3-pyridinyl)-N-3-isoxazolyl-2-oxo-1,2-dihydro-6-quinolinesulfonamide] was run?
A: 6.92

Same assay, conditions: in-vitro Nav 1.7 PX data

Q: How did the pIC50 turn out when `COc1cc(-c2ccc(C)c(F)c2)c(F)cc1-n1c(=O)ccc2cc(S(=O)(=O)Nc3ncccn3)ccc21` [Example 1126, 1-(2,3′-difluoro-5-methoxy-4′-methyl-4-biphenylyl)-2-oxo-N-2-pyrimidinyl-1,2-dihydro-6-quinolinesulfonamide] was run?
A: 7.24

Q: `COc1cc(CC2CCCCC2)c(F)cc1-n1c(=O)ccc2cc(S(=O)(=O)Nc3ncc(F)cn3)ccc21` [Example 1111, 1-(4-(cyclohexylmethyl)-5-fluoro-2-methoxyphenyl)-N-(5-fluoro-2-pyrimidinyl)-2-oxo-1,2-dihydro-6-quinolinesulfonamide] was tested. Which pIC50 did it give?
A: 7.06

Q: With `COc1cc(-c2ccc(Cl)c(C)c2)c(F)cc1-n1c(=O)ccc2cc(S(=O)(=O)Nc3ncon3)ccc21` (atropisomer, axis not shown; (P)) [Example 663, (P)-1-(4′-chloro-2-fluoro-5-methoxy-3′-methyl-4-biphenylyl)-N-1,2,4-oxadiazol-3-yl-2-oxo-1,2-dihydro-6-quinolinesulfonamide] as the compound, how does the pIC50 read?
A: 8.22

Q: How did the pIC50 turn out when `CCc1cccc(-c2cc(OC)c(-n3c(=O)ccc4cc(S(=O)(=O)Nc5ccon5)ccc43)cc2F)c1` [Example 791, 1-(3′-ethyl-2-fluoro-5-methoxy-4-biphenylyl)-N-3-isoxazolyl-2-oxo-1,2-dihydro-6-quinolinesulfonamide] was run?
A: 8.05

Q: `COc1nc(OC2CCC2)c(Cl)cc1-n1c(=O)ccc2cc(S(=O)(=O)Nc3ccon3)ccc21` [Example 821, 1-(5-chloro-6-(cyclobutyloxy)-2-methoxy-3-pyridinyl)-N-3-isoxazolyl-2-oxo-1,2-dihydro-6-quinolinesulfonamide] was tested. Which pIC50 did it give?
A: 5.33

Same assay, conditions: in-vitro PatchXpress (PX)

Q: `COc1cc(-c2cccc(C(F)(F)F)c2)ccc1-n1c(=O)ccc2cc(S(=O)(=O)Nc3cccnn3)ccc21` (atropisomer, axis not shown; (M)) [Example 370, (M)-1-(3-methoxy-3′-(trifluoromethyl)-4-biphenylyl)-2-oxo-N-3-pyridazinyl-1,2-dihydro-6-quinolinesulfonamide] was tested. Which pIC50 did it give?
A: 5.61
